Measured values taken from PMC3779320, “Bub3 reads phosphorylated MELT repeats to promote spindle assembly checkpoint signaling” (eLife, 2013).
Numbering of substitutions follows the chain as printed. Square brackets hold non-standard residues; d marks the D form. Peptide text beside a SMILES is read from it. pT = C[C@@H](OP(=O)(O)O)[C@H](N)C(=O)O

Experiments:
Bub1^289–359–Bub3 = target: T1, Bub1^289–359–Bub3 (Saccharomyces cerevisiae, UniProt P26449+P41695); test: ITC binding of MELT peptides to Bub1^289–359–Bub3 (wild type); settings: 25°C, 20 mM Tris pH7.5, 150 mM NaCl, 1 mM DTE, complex 30 µM in cell, peptide 400 µM
T1 construct: S. cerevisiae Bub1^289–359 and for full length Bub3; GST (N, cleaved yes); made in house; host or cells: E. coli BL21 DE3 plysS
T1 sequence (P26449 1-341): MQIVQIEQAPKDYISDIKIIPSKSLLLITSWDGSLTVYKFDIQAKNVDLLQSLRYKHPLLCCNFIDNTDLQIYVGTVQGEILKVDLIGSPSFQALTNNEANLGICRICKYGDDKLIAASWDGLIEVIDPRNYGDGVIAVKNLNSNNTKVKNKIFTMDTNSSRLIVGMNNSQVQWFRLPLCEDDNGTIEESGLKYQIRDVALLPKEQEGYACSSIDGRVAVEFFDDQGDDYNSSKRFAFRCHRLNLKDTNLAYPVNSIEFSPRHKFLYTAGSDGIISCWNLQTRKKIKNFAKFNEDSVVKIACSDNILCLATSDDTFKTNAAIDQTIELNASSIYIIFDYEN
T1 sequence (P41695 289-359): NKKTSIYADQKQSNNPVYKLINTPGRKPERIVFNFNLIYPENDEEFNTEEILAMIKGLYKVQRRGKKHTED
Description: We generated recombinant ScBub1^289–359–Bub3 (where the Bub1 segment is equivalent to the minimal kinetochore targeting region of human Bub1 [[Krenn et al., 2012]]) by bacterial co-expression and purified it to homogeneity (Figure 1D). To assess whether Bub1–Bub3 binds directly to MELT^P sequences, we tested its ability to bind MELT sequences in quantitative isothermal titration calorimetry (ITC) binding experiments. 19-residue synthetic peptides encompassing the sequences of the second and fourth MELT^P motifs of Spc105/Knl1 (indicated as MELT2 and MELT4, respectively), each flanked by four and eleven residues on the N- and C-terminal ends, respectively, were tested (Figure 1C). […] Thus, ScBub1^289–359–Bub3 is sufficient for the reconstitution of tight interactions with two MELT^P peptides in vitro that recapitulate a salient feature of this interaction, its dependency on phosphorylation.
cDNA sequences coding for S. cerevisiae Bub1^289–359 and for full length Bub3 were subcloned in the first and second cassettes of pGEX-6P-2rbs vector ([Ciferri et al., 2005]). In this construct, the cDNA encoding Bub1^289–359 was sub-cloned in frame with the gene encoding GST and a cleavage site for PreScission protease, and was translated from the first ribosome-binding site (rbs). Untagged Bub3 was subcloned downstream of the second rbs in the same vector. Expression was carried out in BL21 DE3 plysS cells in LB medium by auto-induction with 0.3% lactose at 18°C for approximately 16 hr. Cells were harvested by centrifugation and resuspended in Buffer A (20 mM Tris pH 7.5, 300 mM NaCl, 10% Glycerol, 1 mM DTE, 1 mM EDTA pH 8.0, 1 mM PMSF) typically at a dilution of 3 ml lysis buffer per ml of bacterial pellet. Cells were lysed by sonication, and the lysates were cleared by centrifugation at 75000 × g for 45 min. The resulting clear supernatant was incubated with gentle rotation with 1/50 (vol/vol) of GSH-sepharose slurry (GE Healthcare) for 1–2 hr at 4°C. Beads were washed with 150 vol of Buffer A. To elute the Bub1–Bub3 complex from beads, GST-PreScission protease (0.02 mg/mg of protein target) was added for 16 hr at 4°C. The eluate was concentrated on Amicon Ultra Centrifugal Filters MwCO 3000 (Merck Millipore, Billerica, MA) and further purified by size exclusion chromatography (SEC) on a Superdex 75 16/60 column using GF buffer (20 mM Tris pH 7.5, 150 mM NaCl, 1 mM DTE). The complex eluted in a single peak with apparently stoichiometric amounts of Bub1^289–359 and Bub3 and was subsequently concentrated to ∼10 mg/ml for crystallization or to 2–4 mg/ml for ITC experiments. […]
(§1) Binding isotherm was measured at 25°C by isothermal titration calorimetry on a MicroCal ITC200 device (GE Healthcare, Piscataway, NJ). […]

Bub1^289–359–Bub3^R217A = target: T2, Bub1^289–359–Bub3^R217A (Saccharomyces cerevisiae, UniProt P26449+P41695, R217A); test: ITC binding to Bub1^289–359–Bub3^R217A; settings: Bub3 R217A compared with wild type (13- to 25-fold for R217A or R239A)
T2 construct: S. cerevisiae Bub1^289–359 and for full length Bub3; GST (N, cleaved yes); made in house; host or cells: E. coli BL21 DE3 plysS
T2 sequence (P26449 1-341 R217A): T1 sequence (P26449 1-341) with R217A
T2 sequence (P41695 289-359): T1 sequence (P41695 289-359)
Description: Because the presence of a phosphate on Thr172^Spc105/Knl1 is essential for high-affinity binding of ScBub1^289–359–Bub3 to MELT^P peptides (Figure 1), we concentrated our mutational analysis on two residues that are directly implicated in the recognition of the peptide’s phospho-threonine, Arg217^Bub3 and Arg239^Bub3. Positively charged residues are invariant at these positions of the Bub3 alignment (Figure 2C). We generated single or double alanine mutants of Arg217^Bub3 and Arg239^Bub3 in the context of ScBub1^289–359–Bub3 and tested their binding affinity for the MELT2^P peptide by ITC.
cDNA sequences coding for S. cerevisiae Bub1^289–359 and for full length Bub3 were subcloned in the first and second cassettes of pGEX-6P-2rbs vector ([Ciferri et al., 2005]). In this construct, the cDNA encoding Bub1^289–359 was sub-cloned in frame with the gene encoding GST and a cleavage site for PreScission protease, and was translated from the first ribosome-binding site (rbs). Untagged Bub3 was subcloned downstream of the second rbs in the same vector. Expression was carried out in BL21 DE3 plysS cells in LB medium by auto-induction with 0.3% lactose at 18°C for approximately 16 hr. […]
as §1

Structure (SMILES): CC[C@H](C)[C@H](NC(=O)[C@H](CO)NC(=O)[C@H](CCCNC(=N)N)NC(=O)[C@@H]1CCCN1C(=O)[C@H](Cc1ccccc1)NC(=O)[C@@H](NC(=O)[C@H](CCC(=O)O)NC(=O)[C@@H](NC(=O)[C@H](CCSC)NC(=O)[C@H](CCC(=O)O)NC(=O)[C@H](CCSC)NC(=O)[C@H](CO)NC(=O)[C@@H](NC(=O)[C@@H]1CCCN1C(=O)[C@H](CC(=O)O)NC(C)=O)[C@@H](C)O)[C@@H](C)OP(=O)(O)O)C(C)C)C(=O)N[C@@H](CCCNC(=N)N)C(=O)N[C@@H](CCC(N)=O)C(=O)N[C@@H](CCCCN)C(=O)N[C@@H](CC(N)=O)C(N)=O [MELT2^P] (Ac-DPTSMEM[pT]EVFPRSIRQKN-NH2; N-terminus and C-terminus assumed)
- binding (in words) (Bub1^289–359–Bub3): no binding
- fold reduction in binding affinity (Bub1^289–359–Bub3^R217A): 13 fold
